Measurements published in patent US8642799B2, “Cysteine protease inhibitors for the treatment of parasitic diseases” (Merck Canada Inc., priority 2007, dated 2014).

biological target: cruzipain (Trypanosoma cruzi, UniProt P25779); test: biochemical; settings: 50 pM cruzipain, pH 5.5, 15 minutes preincubation, 2 μM Z-Phe-Arg-AMC substrate
Protocol: The assay solutions were mixed and incubated for 15 minutes at room temperature prior to the addition of 2 μM of Z-Phe-Arg-AMC substrate. […] Percent of inhibition were calculated by fitting experimental values to standard mathematical model for dose response curve.

cruzipain, sequence (P25779 123-467): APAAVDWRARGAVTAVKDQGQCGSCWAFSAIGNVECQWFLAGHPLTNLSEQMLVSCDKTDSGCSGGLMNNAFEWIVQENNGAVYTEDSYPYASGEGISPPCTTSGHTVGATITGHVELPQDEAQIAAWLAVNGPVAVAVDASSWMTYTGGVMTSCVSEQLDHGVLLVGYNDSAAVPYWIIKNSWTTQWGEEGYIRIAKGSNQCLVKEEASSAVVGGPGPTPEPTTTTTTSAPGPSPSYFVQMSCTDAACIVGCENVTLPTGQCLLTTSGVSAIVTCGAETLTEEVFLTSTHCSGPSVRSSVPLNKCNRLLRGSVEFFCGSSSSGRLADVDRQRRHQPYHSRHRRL

Row | Structure (SMILES) | IC50
1 | CC(C)(F)C[C@H](N[C@@H](c1ccc(-c2ccc([C@@H](O)C(F)F)cc2)cc1)C(F)(F)F)C(=O)N[C@H](C#N)Cc1ccc(C#N)cc1F [Example 32, (S)-2-{(S)-1-[4′-((R)-2,2-Difluoro-1-hydroxy-ethyl)-biphenyl-4-yl]-2,2,2-trifluoro-ethylamino}-4-fluoro-4-methyl-pentanoic acid [(S)-cyano-(4-cyano-2-fluoro-benzyl)-methyl]-amide] | 0.9 nM
2 | Cn1cccc1-c1ccc([C@H](N[C@@H](CC(C)(C)F)C(=O)N[C@H](C#N)Cc2ccccc2)C(F)(F)F)cc1 [Example 35, (S)-4-Fluoro-4-methyl-2-{(S)-2,2,2-trifluoro-1-[4-(1-methyl-1H-pyrrol-2-yl)-phenyl]-ethylamino}-pentanoic acid ((S)-1-cyano-2-phenyl-ethyl)-amide] | 12.2 nM
3 | CC(C)[C@H](N[C@@H](c1ccc(-c2ccc([C@@H](O)C(F)F)cc2)cc1)C(F)(F)F)C(=O)N[C@H](C#N)Cc1ccccc1 [Example 50, (S)-N-((S)-Benzyl-cyano-methyl)-2-{(S)-1-[4′-((R)-2,2-difluoro-1-hydroxy-ethyl)-biphenyl-4-yl]-2,2,2-trifluoro-ethylamino}-3-methyl-butyramide] | 3.2 nM
4 | CC(C)[C@H](N[C@@H](c1ccc(-c2ccc([C@@H](O)C(F)F)cc2)cc1)C(F)(F)F)C(=O)N[C@H](C#N)Cc1ccc(C(F)(F)F)cc1F [Example 61, (S)-N-[(S)-Cyano-(2-fluoro-4-trifluoromethyl-benzyl)-methyl]-2-{(S)-1-[4′-((R)-2,2-difluoro-1-hydroxy-ethyl)-biphenyl-4-yl]-2,2,2-trifluoro-ethylamino}-3-methyl-butyramide] | 1.5 nM
5 | CC(C)(F)C[C@H](N[C@@H](c1ccc(-c2ccc(S(C)(=O)=O)cc2)cc1)C(F)(F)F)C(=O)N[C@H](C#N)Cc1c(F)cc(C#N)cc1F [Example 67, (S)-4-Fluoro-4-methyl-2-[(S)-2,2,2-trifluoro-1-(4′-methanesulfonyl-biphenyl-4-yl)-ethylamino]-pentanoic acid [(S)-cyano-(4-cyano-2,6-difluoro-benzyl)-methyl]-amide] | 0.9 nM
6 | CC(C)(F)C[C@H](N[C@@H](c1ccc(-c2ccc(C3(C(=O)NCCO)CC3)cc2)cc1)C(F)(F)F)C(=O)N[C@H](C#N)Cc1ccccc1 [Example 52, 1-[4′-((S)-1-{(S)-1-[((S)-Benzyl-cyano-methyl)-carbamoyl]-3-fluoro-3-methyl-butylamino}-2,2,2-trifluoro-ethyl)-biphenyl-4-yl]-cyclopropanecarboxylic acid (2-hydroxy-ethyl)-amide] | 2.8 nM
7 | CC(C)(F)C[C@H](N[C@@H](c1ccc(-c2ccc(S(C)(=O)=O)cc2)cc1)C(F)(F)F)C(=O)N[C@H](C#N)Cc1ccc(Cl)cc1Cl [Example 18, (S)-4-Fluoro-4-methyl-2-[(S)-2,2,2-trifluoro-1-(4′-methanesulfonyl-biphenyl-4-yl)-ethylamino]-pentanoic acid [(S)-1-cyano-2-(2,4-dichloro-phenyl)-ethyl]-amide] | 1.3 nM
8 | CC(C)(F)C[C@H](N[C@@H](c1ccc(-c2ccc(S(C)(=O)=O)cc2)cc1)C(F)(F)F)C(=O)N[C@H](C#N)Cc1c(F)cccc1F [Example 76, (S)-4-Fluoro-4-methyl-2-[(S)-2,2,2-trifluoro-1-(4′-methanesulfonyl-biphenyl-4-yl)-ethylamino]-pentanoic acid [(S)-cyano-(2,6-difluoro-benzyl)-methyl]-amide] | 7.1 nM
9 | CC(C)(F)C[C@H](N[C@@H](c1ccc(-c2ccc(S(C)(=O)=O)cc2)cc1)C(F)(F)F)C(=O)N[C@H](C#N)Cc1ccccc1F [Example 17, (S)-Fluoro-4-methyl-2-[(S)-2,2,2-trifluoro-1-(4′-methanesulfonyl-biphenyl-4-yl)-ethylamino]-pentanoic acid [(S)-1-cyano-2-(2-fluoro-phenyl)-ethyl]-amide] | 0.9 nM
10 | N#Cc1ccc(C[C@@H](C#N)NC(=O)[C@@H](N[C@@H](c2ccc(-c3ccc([C@@H](O)C(F)F)cc3)cc2)C(F)(F)F)C2CC2)c(F)c1 [Example 69, (S)-N-[(S)-Cyano-(4-cyano-2-fluoro-benzyl)-methyl]-2-cyclopropyl-2-{(S)-1-[4′-((R)-2,2-difluoro-1-hydroxy-ethyl)-biphenyl-4-yl]-2,2,2-trifluoro-ethylamino}-acetamide] | 4.3 nM
11 | CC(C)[C@H](N[C@@H](c1ccc(-c2ccc(N3CCNCC3)cc2)cc1)C(F)(F)F)C(=O)N[C@H](C#N)Cc1ccccc1 [Example 47, 4-[4′-((S)-1-{(S)-1-[((S)-Benzyl-cyano-methyl)-carbamoyl]-2-methyl-propylamino}-2,2,2-trifluoro-ethyl)-biphenyl-4-yl]-piperazin-1-ium; chloride] | 0.1 nM
12 | CC(C)(F)C[C@H](N[C@@H](c1ccc(-c2ccc(S(C)(=O)=O)cc2)cc1)C(F)(F)F)C(=O)NC(C#N)Cc1ccc(F)cc1F (stereo partly drawn) [Example 34, (S)-4-Fluoro-4-methyl-2-[(S)-2,2,2-trifluoro-1-(4′-methanesulfonyl-biphenyl-4-yl)-ethylamino]-pentanoic acid [cyano-(2,4-difluoro-benzyl)-methyl]-amide] | 2.6 nM
13 | CC(C)(F)C[C@H](N[C@@H](c1ccc(-c2ccc(C3(C(N)=O)CC3)cc2)cc1)C(F)(F)F)C(=O)N[C@H](C#N)Cc1ccc(C#N)cc1F [Example 38, 1-[4′-((S)-1-{(S)-1-[(S)-1-Cyano-2-(4-cyano-2-fluoro-phenyl)-ethylcarbamoyl]-3-fluoro-3-methyl-butylamino}-2,2,2-trifluoro-ethyl)-biphenyl-4-yl]-cyclopropanecarboxylic acid amide] | 0.3 nM
14 | CC(C)(F)C[C@H](N[C@@H](c1ccc(-c2ccc([C@@H](O)C(F)F)cc2)cc1)C(F)(F)F)C(=O)N[C@H](C#N)Cc1ccc(S(C)(=O)=O)cc1 [Example 20, (S)-2-{(S)-1-[4′-((R)-2,2-Difluoro-1-hydroxy-ethyl)-biphenyl-4-yl]-2,2,2-trifluoro-ethylamino}-4-fluoro-4-methyl-pentanoic acid [(S)-1-cyano-2-(4-methanesulfonyl-phenyl)-ethyl]-amide] | 8.4 nM
15 | CC(C)(F)C[C@H](N[C@@H](c1ccc(-c2ccc(S(C)(=O)=O)cc2Cl)cc1)C(F)(F)F)C(=O)NC(C#N)Cc1ccc(C#N)cc1Cl (stereo partly drawn) [Example 6, (S)-2-[(S)-1-(2′-Chloro-4′-methanesulfonyl-biphenyl-4-yl)-2,2,2-trifluoro-ethylamino]-4-fluoro-4-methyl-pentanoic acid [2-(2-chloro-4-cyano-phenyl)-1-cyano-ethyl]-amide] | 1.2 nM
16 | CC(C)(F)C[C@H](N[C@@H](c1ccc(-c2ccc(S(N)(=O)=O)cc2)cc1)C(F)(F)F)C(=O)N[C@H](C#N)Cc1ccccc1 [Example 31, (S)-4-Fluoro-4-methyl-2-[(S)-2,2,2-trifluoro-1-(4′-sulfamoyl-biphenyl-4-yl)-ethylamino]-pentanoic acid ((S)-1-cyano-2-phenyl-ethyl)-amide] | 16 nM
17 | CS(=O)(=O)c1ccc(-c2ccc([C@H](N[C@@H](CC(Cl)Cl)C(=O)N[C@H](C#N)Cc3ccc(C#N)cc3F)C(F)(F)F)cc2)cc1 [Example 1, (S)-4,4-Dichloro-N-[(S)-cyano-(4-cyano-2-fluoro-benzyl)-methyl]-2-[(S)-2,2,2-trifluoro-1-(4′-methanesulfonyl-biphenyl-4-yl)-ethylamino]-butyramide] | 0.14 nM
